Measurements published in US10160771B2, “Hepatitis C virus inhibitors and uses thereof in preparation of drugs” (priority 2014, dated 2018).

Key:
[1] = system: HCV genotype 1b (HCV-1b) replicon cells; assay: HCV genotype 1b replicon luciferase assay (EC50); assay type: cell-based, hepatitis C virus genotype 1b (Con1 clone); details: Hepatitis C virus, 72 h, 3 days, luciferase (Bright-Glo)
Summary of the method: (§1)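 EC50 by nonlinear fitting of % inhibition from Bright-Glo luciferase signal after 3-day, 37° C. compound exposure (5-fold, 6 points from 100, 10 or 1 nM; 0.5% DMSO; duplicates). Cells: 1a replicon from H77 (K1691R/K2040R/S2204I) or 1b from Con1 (E1202G/T1280I/K1846T), 8000 per well.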

[2] = Cell Titer-fluor cell activity assay in HCV-1b replicon cells (CC50); assay type: cell-based
Description: The EC50 and CC50 values of anti-HCV compounds were determined by HCV genotype 1a (HCV-1a) and 1B (HCV-1b) stable transfer replication (replicon) cells. The source of genotype 1a replicon is H77 clones containing K1691R, K2040R and S2204I adaptive mutations. The source of genotype 1b replicon is Con1 clones containing E1202G, T1280I and K1846T adaptive mutations.
HCV Replicon Cell Lines: HCV-1a and HCV-1b Cells
The compound powder was dissolved in 100% DMSO. Then the compound was diluted 5 times with 6 points, and added into the cell plate with Echo liquid handler. Ensure the final concentration of DMSO was 0.5%. Each compound was tested in double holes. Maximum initial concentration was 100, 10 or 1 nM, 5 times dilution, 6 points.
b) Cell Culture (HCV-1a or HCV-1b Replicon Cell):
1) absorbing the culture supernatant of the cell culture and washing the cells with 10 mL PBS.
2) adding preheated pancreatin to the washed cell culture flasks, rotating culture bottle to make the bottom of the culture bottle uniformly covered by pancreatin, then placed into 37° C., 5% CO2 incubator to digest.
3) suspending cells in each T150 culture flask with 10-15 mL culture medium, absorbing 0.1 mL liquid and diluting 2 times by trypan blue solution as counted.
4) diluting cells to 8×10^4/mL with the culture medium, adding the diluted cells into the compound-containing 96-well plate (Greiner, Cat.#655090) (100 μL/well, 8000 cells/well) with automatic liquid separator (Thermo Scientific). Then place into a 37° C., 5% CO2 incubator for 3 days. Cell control well: no compound, only containing 0.5% DMSO.
5) adding chemiluminescent substrate Cell Titer-fluor to the cell well, after incubation for 30 minutes, detecting the signal by chemiluminescence detection system Envison (Ex at 405 nm and read at 515 nm). The effect of the compounds on the activity of HCV replicon cells was analyzed according to the luminescence data, which was used to calculate the CC50 values.
The EC50 or CC50 values were obtained by nonlinear fitting analysis on inhibition percentage (inh %) data with GraphPad Prism software.

[3] = system: HCV genotype 1a (HCV-1a) replicon cells; assay: HCV genotype 1a replicon luciferase assay (EC50); assay type: cell-based, hepatitis C virus genotype 1a (H77 clone); details: Hepatitis C virus, 72 h, 3 days, luciferase (Bright-Glo)
Summary of the method: as §1

| Structure (SMILES) | EC50 [1] [nM] | CC50 at 3 days [2] [nM] | EC50 [3] [nM] |
| --- | --- | --- | --- |
| COC(=O)N[C@H](C(=O)N1CCC[C@H]1c1ncc(-c2ccc(-c3ccc(-c4cnc(C5C6CCC(C6)[C@@H]5C(=O)N(NC(=O)OC)C(C)C)[nH]4)cc3)cc2Cl)[nH]1)C(C)C (stereo partly drawn) [AA_156] | 0.001 to 0.1 | > 1 | 1 to 10 |
| COC(=O)N[C@H](C(=O)N1CCC[C@H]1c1ncc(-c2ccc(-c3ccc(-c4cnc(C5C6CCC(C6)[C@@H]5C(=O)N(NC(=O)OC)C5CCOCC5)[nH]4)cc3)cc2)[nH]1)C(C)C (stereo partly drawn) [AA_158] | 0.001 to 0.1 | > 1 | 1 to 10 |
| COC(=O)N[C@H](C(=O)N1CCC[C@H]1c1ncc(-c2ccc(-c3ccc(-c4cnc(C5CC6(C[C@@H]5C(=O)N(NC(=O)OC)C(C)C)OCCO6)[nH]4)cc3)cc2)[nH]1)C(C)C (stereo partly drawn) [AA_160] | 0.001 to 0.1 | > 50 | 1 to 10 |
| COC(=O)N[C@H](C(=O)N1CCC[C@H]1c1ncc(-c2ccc(-c3ccc(-c4cnc(C5C6CCC(C6)[C@H]5C(=O)NCc5cccnc5)[nH]4)cc3)cc2)[nH]1)C(C)C (stereo partly drawn) [AA_162_A] | 0.001 to 0.1 | > 1 | 1 to 10 |
| COC(=O)N[C@H](C(=O)N1CCC[C@H]1c1ncc(-c2ccc(-c3ccc(-c4cnc(C5C6CCC(C6)[C@@H]5C(=O)NCc5cccnc5)[nH]4)cc3)cc2)[nH]1)C(C)C (stereo partly drawn) [AA_162_B] | 0.001 to 0.1 | > 1 | 1 to 10 |
| COC(=O)N[C@H](C(=O)N1CCC[C@H]1c1ncc(-c2ccc(-c3ccc(-c4cnc([C@@H]5[C@H]6CC[C@H](C6)[C@H]5C(=O)NCc5cccnc5)[nH]4)cc3)cc2)[nH]1)C(C)C [AA_162_ENDOA2] | 0.001 to 0.1 | > 1 | 0.101 to 1 |
| COC(=O)N[C@H](C(=O)N1CCC[C@H]1c1cnc(-c2ccc(-c3ccc(-c4ncc(C5C6CCC(C6)[C@H]5C(=O)N(NC(=O)OC)C(C)C)[nH]4)cc3)cc2OC)[nH]1)C(C)C (stereo partly drawn) [AA_166_A] | 0.001 to 0.1 | > 5 | 10 to 100 |
| COC(=O)N[C@H](C(=O)N1CCC[C@H]1c1cnc(-c2ccc(-c3ccc(-c4ncc(C5C6CCC(C6)[C@@H]5C(=O)N(NC(=O)OC)C(C)C)[nH]4)cc3)cc2OC)[nH]1)C(C)C (stereo partly drawn) [AA_166_B] | 0.101 to 1 | > 5 | 10 to 100 |
| COC(=O)N[C@H](C(=O)N1CCC[C@H]1c1ncc(-c2ccc(-c3ccc(-c4cnc(C5C6CCC(C6)[C@@H]5C(=O)N(NC(=O)OC)C(C)C)[nH]4)cc3)c(C)c2)[nH]1)C(C)C (stereo partly drawn) [AA_167] | 0.001 to 0.1 | > 1 | 1 to 10 |
| COC(=O)N[C@H](C(=O)N1CCC[C@H]1c1cnc(-c2ccc(-c3ccc(-c4ncc(C5C6CCC(C6)[C@H]5C(=O)N(NC(=O)OC)C(C)C)[nH]4)cc3)cc2C)[nH]1)C(C)C (stereo partly drawn) [AA_169_A] | 0.001 to 0.1 | > 5 | 1 to 10 |
| COC(=O)N[C@H](C(=O)N1CCC[C@H]1c1cnc(-c2ccc(-c3ccc(-c4ncc(C5C6CCC(C6)[C@@H]5C(=O)N(NC(=O)OC)C(C)C)[nH]4)cc3)cc2C)[nH]1)C(C)C (stereo partly drawn) [AA_169_B] | 0.001 to 0.1 | > 5 | 10 to 100 |
| COC(=O)N[C@H](C(=O)N1CCC[C@H]1c1ncc(-c2ccc(-c3ccc(-c4cnc(C5C6CCC(C6)[C@H]5C(=O)NCc5cccnc5)[nH]4)cc3)cc2)[nH]1)[C@@H](C)OC (stereo partly drawn) [AA_179_A] | 0.001 to 0.1 | > 1 | 1 to 10 |
| COC(=O)N[C@H](C(=O)N1CCC[C@H]1c1ncc(-c2ccc(-c3ccc(-c4cnc(C5C6CCC(C6)[C@@H]5C(=O)NCc5cccnc5)[nH]4)cc3)cc2)[nH]1)[C@@H](C)OC (stereo partly drawn) [AA_179_B] | 0.001 to 0.1 | > 1 | 1 to 10 |
| O=C(NCc1cccnc1)[C@H]1C2CCC(C2)C1c1ncc(-c2ccc(-c3ccc(-c4cnc([C@@H]5C6CCC(C6)[C@H]5C(=O)NCc5cccnc5)[nH]4)cc3)cc2)[nH]1 (stereo partly drawn) [AA_180] | 1 to 10 | > 10 | 10 to 100 |
| COC(=O)N[C@H](C(=O)N1CCC[C@H]1c1ncc(-c2ccc(-c3ccc(-c4cnc([C@H]5CCCC[C@@H]5C(=O)NCc5cncc(C)c5)[nH]4)cc3)cc2)[nH]1)C(C)C [AA_184] | 0.101 to 1 | > 5 | 10 to 100 |
